Measured values reported in paper PMC10302299, “Spruce Balm-Based Semisolid Vehicles for Wound Healing: Effect of Excipients on Rheological Properties and Ex Vivo Skin Permeation” (Pharmaceutics, 2023).
Like-named read-outs stand apart in the source and are kept apart here. Each block holds one molecule with its values, some of them ahead of it.

Experiments:
[1] = cited from earlier work
[2] = Ex vivo skin permeation, static Franz-type diffusion cells, HPLC-DAD relative quantification; type: in vitro ADME, porcine; conditions: for total permeated amounts (AUC), comparison of the two ointments: after 32 h, lard ointment versus wool wax/castor oil ointment; for Enhancement Factor: mean flux from lard versus wool wax/castor oil; for Mean Flux Based on AUC/cm^2/h (relative mass flux): infinite dose 500 mg, 32 °C, n = 9 cells; for time after which detectable in acceptor samples: wool wax/castor oil and Picea-Salbe ointments
Description: Skin permeation studies were performed using dermatomed porcine ear skin and static Franz-type diffusion cells (PermeGear, Hellertown, PA, USA, permeation area of 0.95 cm^2, acceptor volume of 2 mL). Porcine ears were obtained after sacrifice from a local abattoir (Johann Gantner GmbH, Gemeinde Hollabrunn, Austria, male and female animals at six months of age). The ears were cleaned under running water and were dried and stored at −18 °C until use.
Fresh vehicles were prepared 48 h before the start of the experiments. Skin from the dorsal side of the ears was cut to a thickness of 400 µm with a dermatome (Aesculap GA 630 DBP, Aesculap AG, Tuttlingen, Germany). Hair was removed with scissors. The skin was cut into 1 × 1 cm pieces and was clamped between donor and acceptor chamber. The acceptor medium consisted of a mixture of phosphate-buffered saline and ethanol (60:40% v/v) to ensure sink conditions. The phosphate-buffered saline was prepared as described in the Pharmacopoeia Europaea (0.012 M, pH of 7.4, 0.238% w/w sodium monohydrogen phosphate, 0.019% w/w potassium dihydrogen phosphate, and 0.8% w/w sodium chloride). Before starting the experiments, the transepidermal water loss (TEWL) was measured with a closed-chamber device and a coupling adapter (Aquaflux® AF200, Biox Systems Ltd., London, UK) to ensure consistent skin quality and barrier function.
The ointments were applied to the donor chambers at infinite dose conditions (500 mg of formulation). The donor compartment and sampling arm were occluded with Parafilm to prevent evaporation of sample or acceptor fluid. The diffusion cells were kept in a water bath at 32 °C to simulate skin surface temperature. Magnetic stirring was employed to avoid concentration layers within the acceptor fluid. Cells were regularly checked for air bubbles. After predefined intervals (2, 4, 6, 8, 24, 28, and 32 h), an aliquot of 200 μL of acceptor medium was taken for analysis and was replaced with fresh acceptor medium at 32 °C.
The most suitable formulation was chosen for analysis of permeation potential as well as the commercial product Picea-Salbe®. Three individual permeation experiments with n = 3 cells were performed for formulations and controls. The final results depict mean values ± SDs of n = 9 cells per formulation. As controls, the respective ointment bases without PSB as well as the plain acceptor medium alone were used.
For the analysis of samples drawn from Franz diffusion cells, a Shimadzu HPLC instrumentation with diode array detection (SHIMADZU Autosampler SIL-20AC HAT, SHIMADZU Column Oven CTO-20AC, SHIMADZU Communications Bus Module CBM-20A, SHIMADZU Degasser DGU-20A5, SHIMADZU Diode Array Detector SPD-M20A, SHIMADZU Liquid Chromatograph LC-20AD, SHIMADZU LabSolutions Software 5.81, Shimadzu, Kyoto, Japan) was used. A reversed-phase C18 column (LiChrospher 100 RP18e, 5 μm, 250 × 4 mm, Merck KGaA, Darmstadt, Germany) was employed as stationary phase. Double-distilled water + 0.1% formic acid (solvent A) and acetonitrile + 0.1% formic acid (solvent B) served as mobile phase, and gradient elution at 1 mL/min flow rate was applied as follows: 15% solvent B rose to 95% solvent B within 45 min (rate of 1.77%/min) followed by 5 min washing step at 98% solvent B and re-equilibration for 10 min with 15% solvent B. Samples drawn from Franz diffusion cells were centrifuged, and 10 μL were injected into the system. PSB samples were dissolved in acetone to a final concentration of 5 mg/mL, and 2 μL were analyzed. […] Peak areas (AUC) were obtained using the SHIMADZU LabSolutions Software 5.81 (Shimadzu, Kyoto, Japan) and were further utilized for interpretation of data.

[3] = vehicle lard (Picea-Salbe, 20% spruce balm)
[4] = vehicle wool wax/castor oil with 20% PSB (batch PSB5)

Molecule: CC(C)c1ccc2c(c1)C(O)CC1[C@](C)(C(=O)O)CCC[C@]21C (some centres unmarked) [7-Hydroxy-dehydroabietic acid]
Effects contributing to wound healing ([1]; Hydroxylated resin acids): re-epithelialization boosting [9], antimicrobial [22], and anti-inflammatory effects [23]

Molecule: CC(C)(O)c1ccc2c(c1)[C@H](O)CC1[C@](C)(C(=O)O)CCC[C@]21C (stereo partly drawn) [7α,15-Dihydroxy-dehydroabietic acid]
Effects contributing to wound healing ([1]; Hydroxylated resin acids): re-epithelialization boosting [9], antimicrobial [22], and anti-inflammatory effects [23]

Molecule: CC(C)(O)c1ccc2c(c1)[C@@H](O)CC1[C@](C)(C(=O)O)CCC[C@]21C (stereo partly drawn) [7β,15-Dihydroxy-dehydroabietic acid]
Effects contributing to wound healing ([1]; Hydroxylated resin acids): re-epithelialization boosting [9], antimicrobial [22], and anti-inflammatory effects [23]

total permeated amounts (AUC), comparison of the two ointments [2]: a similar trend was observed
Enhancement Factor [2]: 1.8
Mean Flux Based on AUC/cm^2/h (relative mass flux) [2, 3]: 25.558 ± 9.673 AUC/cm^2/h
Mean Flux Based on AUC/cm^2/h (relative mass flux) [2, 4]: 13.606 ± 6.196 AUC/cm^2/h
time after which detectable in acceptor samples [2]: 24 h
Molecule: CC(C)(O)c1ccc2c(c1)CC[C@H]1[C@](C)(C(=O)O)CCC[C@]21C [15-hydroxy-dehydroabietic acid, 15-Hydroxy-dehydroabietic acid]
Effects contributing to wound healing ([1]; Hydroxylated resin acids): re-epithelialization boosting [9], antimicrobial [22], and anti-inflammatory effects [23]

Molecule: CC(C)C1=CC2=CC[C@@H]3[C@](C)(CCC[C@@]3(C)C(=O)O)[C@H]2CC1 [Abietic acid]
Effects contributing to wound healing ([1]; Diterpene resin acids (302 Da)): re-epithelialization boosting [9], antimicrobial [24, 25, 26, 27], anti-inflammatory [28, 29, 30], and antioxidant effects [31]

Molecule: O=C(O)/C=C/c1ccc(O)c(O)c1 [Caffeic acid]
Effects contributing to wound healing ([1]; Hydroxycinnamic acids): antioxidant, antimicrobial, and anti-inflammatory effects [19]

Molecule: COc1cc(/C=C/C(=O)O)ccc1O [Ferulic acid]
Effects contributing to wound healing ([1]; Hydroxycinnamic acids): antioxidant, antimicrobial, and anti-inflammatory effects [19]

Molecule: C=C[C@@]1(C)CC[C@H]2C(=CC[C@@H]3[C@]2(C)CCC[C@@]3(C)C(=O)O)C1 [Isopimaric acid]
Effects contributing to wound healing ([1]; Diterpene resin acids (302 Da)): re-epithelialization boosting [9], antimicrobial [24, 25, 26, 27], anti-inflammatory [28, 29, 30], and antioxidant effects [31]

Molecule: CC(C)C1=CC[C@H]2C(=C1)CC[C@@H]1[C@]2(C)CCC[C@@]1(C)C(=O)O [Levopimaric acid]
Effects contributing to wound healing ([1]; Diterpene resin acids (302 Da)): re-epithelialization boosting [9], antimicrobial [24, 25, 26, 27], anti-inflammatory [28, 29, 30], and antioxidant effects [31]

Molecule: CC(C)=C1C=C2CCC3C(C)(C(=O)O)CCCC3(C)C2CC1 (centres unmarked) [Neoabietic acid]
Effects contributing to wound healing ([1]; Diterpene resin acids (302 Da)): re-epithelialization boosting [9], antimicrobial [24, 25, 26, 27], anti-inflammatory [28, 29, 30], and antioxidant effects [31]

Molecule: CC(C)C1=CC2=C(CC1)[C@@]1(C)CCC[C@@](C)(C(=O)O)[C@@H]1CC2 [Palustric acid]
Effects contributing to wound healing ([1]; Diterpene resin acids (302 Da)): re-epithelialization boosting [9], antimicrobial [24, 25, 26, 27], anti-inflammatory [28, 29, 30], and antioxidant effects [31]

Molecule: C=C[C@@]1(C)C=C2CC[C@@H]3[C@](C)(CCC[C@@]3(C)C(=O)O)[C@H]2CC1 [Pimaric acid]
Effects contributing to wound healing ([1]; Diterpene resin acids (302 Da)): re-epithelialization boosting [9], antimicrobial [24, 25, 26, 27], anti-inflammatory [28, 29, 30], and antioxidant effects [31]

Molecule: C=C[C@]1(C)C=C2CC[C@@H]3[C@](C)(CCC[C@@]3(C)C(=O)O)[C@H]2CC1 [Sandaracopimaric acid]
Effects contributing to wound healing ([1]; Diterpene resin acids (302 Da)): re-epithelialization boosting [9], antimicrobial [24, 25, 26, 27], anti-inflammatory [28, 29, 30], and antioxidant effects [31]

Molecule: CC(C)c1ccc2c(c1)CC[C@H]1[C@](C)(C(=O)O)CCC[C@]21C [dehydroabietic acid, Dehydroabietic acid]
total permeated amounts (AUC), comparison of the two ointments [2]: highly comparable
Enhancement Factor [2]: 1.1
Mean Flux Based on AUC/cm^2/h (relative mass flux) [2, 3]: 24.041 ± 7.099 AUC/cm^2/h
Mean Flux Based on AUC/cm^2/h (relative mass flux) [2, 4]: 21.848 ± 7.791 AUC/cm^2/h
time after which detectable in acceptor samples [2]: 8 h
Effects contributing to wound healing ([1]; Diterpene resin acids (300 Da)): re-epithelialization boosting [9], anti-inflammatory [23], and antimicrobial effects [24]

Molecule: O=C(O)C=Cc1ccc(O)cc1 [p-Coumaric acid]
Effects contributing to wound healing ([1]; Hydroxycinnamic acids): antioxidant, antimicrobial, and anti-inflammatory effects [19]

Molecule: Pinoresinol
Effects contributing to wound healing ([1]; Lignans): antifungal [20], antioxidant, anti-inflammatory [21], and re-epithelialization boosting effects [9]
